Tested on: HepG2 cells
Assay: RNA-seq transcriptome analysis of differentially expressed genes
Type: cell-based, human
Details: BCP vs control HepG2
Description: The quality and concentration of RNA were examined by MOPS RNA electrophoresis and Eppendorf BioSpectrometer. The transcriptome analysis was performed by BGI-Wuhan China. The RNA-seq dataset of this study is accessible in the Gene Expression Omnibus (GEO) with an access number of GSE276099. The sequence library for each sample was prepared using the BGISEQ-500 platform with a 50-bp single-end (SE50) format. […]2.2.1) was used to align the clean reads to the reference genome and alignment of the clean reads to the reference genes was carried out using Bowtie2 (v2.4.5) ([Langmead and Salzberg, 2012]; [Kim et al., 2015]). Gene expression levels were calculated by RSEM (v1.3.1) ([Li and Dewey, 2011]). Analysis of differential gene expression was performed using edgeR in the Bioconductor software package ([Robinson et al., 2010]). Using a standard protocol, the RNA samples were also examined by reverse transcription and quantitative polymerase chain reaction (RT-qPCR). In brief, for reverse transcription, total RNA (1 μg) and gDNA wiper Mix were incubated at 42°C for 2 min. The samples were immediately incubated with a master mix containing 10 pmol/μL of poly (dT) primers at 37°C for 15 min and 85°C for 5 s. To detect the expression of specific genes by qPCR analysis, gene-specific primers (shown in Supplementary Table S1) were mixed with the ChamQ Universal SYBER qPCR Master Mix and the reaction was conducted using the Roche Lightcycler 480. The GAPDH value was used to normalize the results of each gene. The RNA-seq data of BCP-treated HepG2 cells were screened for DEGs. Gene symbols were turned into Enterz ID using the org.Hs.eg.db Bio-conductor R package. The cluster profiler (v4.6.2) package was used to perform the Kyoto Encyclopedia of Genes and Genomes (KEGG) and Gene Ontology (GO) enrichment analyses ([Wu et al., 2021]). Following the Transcript per million (TPM) data of the dataset, the line chart, and heatmap were plotted using ggplot2 and pheatmap R packages, respectively.

## C=C1CC/C=C(\C)CC[C@@H]2[C@@H]1CC2(C)C [BCP, β-caryophyllene]
Gene APOBEC3C, RNA-seq
  logFC APOBEC3C: -0.5856
Gene APOBEC3C, DEG direction
  change APOBEC3C: Down
Gene ARRB1, RNA-seq
  logFC ARRB1: -0.7626
Gene ARRB1, DEG direction
  change ARRB1: Down
Gene ATP9A, RNA-seq
  logFC ATP9A: 0.6507
Gene ATP9A, DEG direction
  change ATP9A: Up
Gene ATP11C, RNA-seq
  logFC ATP11C: -0.7847
Gene ATP11C, DEG direction
  change ATP11C: Down
Gene AXIN2, RNA-seq
  logFC AXIN2: 0.6672
Gene AXIN2, DEG direction
  change AXIN2: Up
Gene B4GALNT4, RNA-seq
  logFC B4GALNT4: -0.5947
Gene B4GALNT4, DEG direction
  change B4GALNT4: Down
Gene BACE2, RNA-seq
  logFC BACE2: 0.7147
Gene BACE2, DEG direction
  change BACE2: Up
Gene BICDL1, RNA-seq
  logFC BICDL1: -0.8616
Gene BICDL1, DEG direction
  change BICDL1: Down
Gene BIRC7, RNA-seq
  logFC BIRC7: 0.7538
Gene BIRC7, DEG direction
  change BIRC7: Up
Gene BIVM-ERCC5, RNA-seq
  logFC BIVM-ERCC5: 0.699
Gene BIVM-ERCC5, DEG direction
  change BIVM-ERCC5: Up
Gene BLCAP, RNA-seq
  logFC BLCAP: -0.6138
Gene BLCAP, DEG direction
  change BLCAP: Down
Gene BMP2, RNA-seq
  logFC BMP2: 0.7686
Gene BMP2, DEG direction
  change BMP2: Up
Gene BUB1B-PAK6, RNA-seq
  logFC BUB1B-PAK6: -1.6183
Gene BUB1B-PAK6, DEG direction
  change BUB1B-PAK6: Down
Gene C1orf198, RNA-seq
  logFC C1orf198: 0.6
Gene C1orf198, DEG direction
  change C1orf198: Up
Gene C1orf216, RNA-seq
  logFC C1orf216: -0.8102
Gene C1orf216, DEG direction
  change C1orf216: Down
Gene C3orf80, RNA-seq
  logFC C3orf80: -1.174
Gene C3orf80, DEG direction
  change C3orf80: Down
Gene C4B, RNA-seq
  logFC C4B: 2.54
Gene C4B, DEG direction
  change C4B: Up
Gene C11orf86, RNA-seq
  logFC C11orf86: -1.473
Gene C11orf86, DEG direction
  change C11orf86: Down
Gene C19orf71, RNA-seq
  logFC C19orf71: 0.8161
Gene C19orf71, DEG direction
  change C19orf71: Up
Gene CA5B, RNA-seq
  logFC CA5B: -1.2201
Gene CA5B, DEG direction
  change CA5B: Down
Gene CARD6, RNA-seq
  logFC CARD6: -1.5314
Gene CARD6, DEG direction
  change CARD6: Down
Gene CCDC24, RNA-seq
  logFC CCDC24: 1.127
Gene CCDC24, DEG direction
  change CCDC24: Up
Gene CCDC86, RNA-seq
  logFC CCDC86: -0.7779
Gene CCDC86, DEG direction
  change CCDC86: Down
Gene CCL2, RNA-seq
  logFC CCL2: -1.48
Gene CCL2, DEG direction
  change CCL2: Down
Gene CCL5, RNA-seq
  logFC CCL5: -1.124
Gene CCL5, DEG direction
  change CCL5: Down
Gene CCL26, RNA-seq
  logFC CCL26: -1.513
Gene CCL26, DEG direction
  change CCL26: Down
Gene CELF2, RNA-seq
  logFC CELF2: 0.8875
Gene CELF2, DEG direction
  change CELF2: Up
Gene CHST2, RNA-seq
  logFC CHST2: -1.145
Gene CHST2, DEG direction
  change CHST2: Down
Gene CKAP2L, RNA-seq
  logFC CKAP2L: 0.6857
Gene CKAP2L, DEG direction
  change CKAP2L: Up
Gene CLDN2, RNA-seq
  logFC CLDN2: 1.355
Gene CLDN2, DEG direction
  change CLDN2: Up
Gene CLIP2, RNA-seq
  logFC CLIP2: -0.6426
Gene CLIP2, DEG direction
  change CLIP2: Down
Gene CLK1, RNA-seq
  logFC CLK1: 0.5953
Gene CLK1, DEG direction
  change CLK1: Up
Gene CLTCL1, RNA-seq
  logFC CLTCL1: 0.7125
Gene CLTCL1, DEG direction
  change CLTCL1: Up
Gene COL1A1, RNA-seq
  logFC COL1A1: 0.6324
Gene COL1A1, DEG direction
  change COL1A1: Up
Gene COL4A1, RNA-seq
  logFC COL4A1: 0.7663
Gene COL4A1, DEG direction
  change COL4A1: Up
Gene COL7A1, RNA-seq
  logFC COL7A1: 0.6003
Gene COL7A1, DEG direction
  change COL7A1: Up
Gene CPM, RNA-seq
  logFC CPM: 0.6061
Gene CPM, DEG direction
  change CPM: Up
Gene CPS1, RNA-seq
  logFC CPS1: 0.6121
Gene CPS1, DEG direction
  change CPS1: Up
Gene CRABP2, RNA-seq
  logFC CRABP2: -0.6843
Gene CRABP2, DEG direction
  change CRABP2: Down
Gene CREB3L4, RNA-seq
  logFC CREB3L4: 0.5981
Gene CREB3L4, DEG direction
  change CREB3L4: Up
Gene CREG2, RNA-seq
  logFC CREG2: 0.6638
Gene CREG2, DEG direction
  change CREG2: Up
Gene CRELD1, RNA-seq
  logFC CRELD1: 0.9439
Gene CRELD1, DEG direction
  change CRELD1: Up
Gene CSRP2, RNA-seq
  logFC CSRP2: 0.7909
Gene CSRP2, DEG direction
  change CSRP2: Up
Gene CYP1A1, RNA-seq
  logFC CYP1A1: -0.7093
Gene CYP1A1, DEG direction
  change CYP1A1: Down
Gene CYP3A5, RNA-seq
  logFC CYP3A5: -1.0618
Gene CYP3A5, DEG direction
  change CYP3A5: Down
Gene CYP3A7, RNA-seq
  logFC CYP3A7: -2.402
Gene CYP3A7, DEG direction
  change CYP3A7: Down
Gene CYP11A1, RNA-seq
  logFC CYP11A1: -1.306
Gene CYP11A1, DEG direction
  change CYP11A1: Down
Gene CYP26B1, RNA-seq
  logFC CYP26B1: -0.8298
Gene CYP26B1, DEG direction
  change CYP26B1: Down
Gene DAAM1, RNA-seq
  logFC DAAM1: -0.6083
Gene DAAM1, DEG direction
  change DAAM1: Down
Gene DDIT3, RNA-seq
  logFC DDIT3: 0.9459
Gene DDIT3, DEG direction
  change DDIT3: Up
Gene DDR2, RNA-seq
  logFC DDR2: 0.7117
Gene DDR2, DEG direction
  change DDR2: Up
Gene DENND2D, RNA-seq
  logFC DENND2D: -1.958
Gene DENND2D, DEG direction
  change DENND2D: Down
Gene DEPDC1, RNA-seq
  logFC DEPDC1: 0.5867
Gene DEPDC1, DEG direction
  change DEPDC1: Up
Gene DGKD, RNA-seq
  logFC DGKD: 0.5855
Gene DGKD, DEG direction
  change DGKD: Up
Gene DLG2, RNA-seq
  logFC DLG2: -1.169
Gene DLG2, DEG direction
  change DLG2: Down
Gene DNER, RNA-seq
  logFC DNER: 1.171
Gene DNER, DEG direction
  change DNER: Up
Gene DOCK4, RNA-seq
  logFC DOCK4: -0.9058
Gene DOCK4, DEG direction
  change DOCK4: Down
Gene EFNB2, RNA-seq
  logFC EFNB2: -0.688
Gene EFNB2, DEG direction
  change EFNB2: Down
Gene EGLN3, RNA-seq
  logFC EGLN3: -0.764

— article PMC11671526, “β-caryophyllene sensitizes hepatocellular carcinoma cells to chemotherapeutics and inhibits cell malignancy through targeting MAPK signaling pathway” (Frontiers in Pharmacology, 2024)
